Test results from patent US12156880B2, “Heterocyclic RIP1 kinase inhibitors” (Rigel Pharmaceuticals, Inc., priority 2021, dated 2024).

What was measured:
U937 cells = assay: U937 cell necroptosis assay (TNFa + zVAD, CellTiter-Glo recovery); assay type: cell-based; conditions: Homo sapiens, U-937, 18 h, TNFa 2 ng/mL + zVAD-fmk, read-out: U937 Zvad TNF CTG Recovery, U937, TNFa + zVAD (IC50)
Procedure, shortened: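 Human U937 (50K/well, 60 uM zVAD-fmk medium, plated same day) or murine L929 (10K/well, plated 18 h, then 40 uM zVAD-fmk medium) were grown in RPMI with 10% FBS. Both were pretreated with compound for 1 h at 37 °C before TNFa at 2 ng/mL final. Viability was read by CellTiter-Glo luminescence after 18 h.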

L929 cells = assay: L929 cell necroptosis assay (TNFa + zVAD, CellTiter-Glo recovery); assay type: cell-based, murine; conditions: Mus musculus, L929, 18 h, TNFa 2 ng/mL + zVAD-fmk, read-out: L929-CTG-recovery, L929, TNFa + zVAD (IC50)
Protocol: In this example, U937 and L929 cells were exposed to compounds of the present disclosure and a cell necroptosis assay was conducted to evaluate the compounds' activity against human RIP1 and murine RIP1.
U937 and L929 cells were obtained from the American Type Culture Collection (Manassas, VA, USA). Both cells were maintained in logarithmic growth phase in complete RPMI 1640 media (Sigma, ST Louis, MO, USA) supplemented with 10% fetal bovine serum (Sigma, ST Louis, MO, USA) at 37° C. with 5% CO2. For necroptosis assay, L929 cells were plated for 18 h in 100 μL/well medium at 10K cells/well in Costar 96-well black clear-bottom plates (Fisher Scientific, Hampton, NH, USA); U937 cells were plated on the day of the assay in 50 μL/well medium containing 60 uM zVAD-fmk (Lonza, Basel, Switzerland) at 50K cells/well. Medium from L929 cells were removed from the 96-well plates and replaced with 50 μL/well new medium containing 40 uM zVAD-fmk. Each compound of the present disclosure evaluated in this example was serially diluted in DMSO from 2.5 mM in 4-fold dilutions, and then diluted 1:125 in complete medium. 50 μL/well 2× of the compound was then added to the cells in the plates. The cells were pre-incubated with the compound for 1 hour at 37° C. with 5% CO2 and before addition of 10 μL/well 11×TNFa (Peprotech, Rocky Hill, NJ, USA) to give a final concentration of 2 ng/mL for TNFa. The relative amount of necroptosis cells was determined by luminescent using a Wallac Victor2 Luminometer (PerkinElmer, Waltham, MA, USA) and a CellTiter-Glo® Luminescent Cell Viability Reagent Assay (Promega, Madison, WI, USA) added per manufacturer instructions after 18 hours of TNFa stimulation at 37° C. with 5% CO2. This example establishes that embodiments of the compounds described herein have unexpectedly potent activity against human RIP1 and murine RIP1, which allows their assessment in in vivo mouse models of disease.

RIPK1 = target: T1, RIPK1 (Homo sapiens, UniProt Q13546); assay: RIPK1 ADP-Glo biochemical kinase assay; conditions: read-out: RIPK1 ADP-Glo Kinase (IC50)
T1 sequence (Q13546 1-671): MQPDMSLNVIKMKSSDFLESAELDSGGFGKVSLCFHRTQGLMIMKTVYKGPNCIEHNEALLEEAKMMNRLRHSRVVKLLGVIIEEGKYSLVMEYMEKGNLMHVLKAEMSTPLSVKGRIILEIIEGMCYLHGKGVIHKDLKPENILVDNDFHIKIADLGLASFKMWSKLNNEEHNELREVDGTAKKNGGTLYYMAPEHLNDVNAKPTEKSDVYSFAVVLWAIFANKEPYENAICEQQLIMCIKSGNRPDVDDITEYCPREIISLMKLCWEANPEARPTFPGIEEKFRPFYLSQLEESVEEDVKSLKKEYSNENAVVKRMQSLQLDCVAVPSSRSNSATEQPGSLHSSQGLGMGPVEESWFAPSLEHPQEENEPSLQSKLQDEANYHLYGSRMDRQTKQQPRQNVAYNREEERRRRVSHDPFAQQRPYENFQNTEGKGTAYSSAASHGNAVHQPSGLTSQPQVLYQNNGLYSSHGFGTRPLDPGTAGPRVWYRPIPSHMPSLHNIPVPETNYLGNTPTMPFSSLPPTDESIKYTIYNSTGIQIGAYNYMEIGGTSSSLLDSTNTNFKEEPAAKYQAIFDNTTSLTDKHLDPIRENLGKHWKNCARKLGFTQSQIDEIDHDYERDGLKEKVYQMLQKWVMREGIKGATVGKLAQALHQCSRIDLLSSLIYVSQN
Procedure, shortened: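 RIPK1 at 31 ng/well in Tris pH 7.4 buffer with MgCl2, BSA, DTT and MnCl2, reacted with compounds (duplicate) for 30 min at 30 °C. ADP formed detected by ADP-Glo: 40 min stop/depletion, then 30 min detection reagent at room temperature; luminescence read.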

CN1C(=O)[C@@H](NC(=O)n2cc(Cc3cccc(F)n3)cn2)COc2ccc(C#CC(C)(C)CO)cc21 [I-37, (S)-4-((6-Fluoropyridin-2-yl)methyl)-N-(7-(4-hydroxy-3,3-dimethylbut-1-yn-1-yl)-5-methyl-4-oxo-2,3,4,5-tetrahydrobenzo[b][1,4]oxazepin-3-yl)-1H-pyrazole-1-carboxamide] was tested, and the IC50 (U937 cells) was 4 nM, the IC50 (L929 cells) was 697 nM and the IC50 (RIPK1) was 16.2 nM.

With CN1C(=O)[C@@H](NC(=O)n2cc(Cc3cccnc3F)cn2)COc2ccc(Br)cc21 [I-42, (S)—N-(7-Bromo-5-methyl-4-oxo-2,3,4,5-tetrahydrobenzo[b][1,4]oxazepin-3-yl)-4-((2-fluoropyridin-3-yl)methyl)-1H-pyrazole-1-carboxamide] the IC50 (U937 cells) was 58.6 nM, the IC50 (L929 cells) was 28400 nM and the IC50 (RIPK1) was 18.2 nM.

With CN1C(=O)[C@@H](NC(=O)n2cc(Cc3cccnc3F)cn2)COc2ccc(C#CC(C)(C)O)cc21 [I-43, (S)-4-((2-Fluoropyridin-3-yl)methyl)-N-(7-(3-hydroxy-3-methylbut-1-yn-1-yl)-5-methyl-4-oxo-2,3,4,5-tetrahydrobenzo[b][1,4]oxazepin-3-yl)-1H-pyrazole-1-carboxamide] the IC50 (U937 cells) was 17.9 nM, the IC50 (L929 cells) was 2520 nM and the IC50 (RIPK1) was 17.7 nM.

For CN1C(=O)[C@@H](NC(=O)n2cc(Cc3cccnc3F)cn2)COc2ccc(C#CC3(O)CCOCC3)cc21 [I-44, (S)-4-((2-Fluoropyridin-3-yl)methyl)-N-(7-((4-hydroxytetrahydro-2H-pyran-4-yl)ethynyl)-5-methyl-4-oxo-2,3,4,5-tetrahydrobenzo[b][1,4]oxazepin-3-yl)-1H-pyrazole-1-carboxamide], the IC50 (U937 cells) was 18 nM, the IC50 (L929 cells) was 4120 nM and the IC50 (RIPK1) was 62.9 nM.

For CN1C(=O)[C@@H](NC(=O)n2cc(Cc3cccnc3F)cn2)COc2ccc(C#CC3CCOCC3)cc21 [I-45, (S)-4-((2-Fluoropyridin-3-yl)methyl)-N-(5-methyl-4-oxo-7-((tetrahydro-2H-pyran-4-yl)ethynyl)-2,3,4,5-tetrahydrobenzo[b][1,4]oxazepin-3-yl)-1H-pyrazole-1-carboxamide], the IC50 (U937 cells) was 5.2 nM, the IC50 (L929 cells) was 512 nM and the IC50 (RIPK1) was 45 nM.

Work on CN1C(=O)[C@@H](NC(=O)n2cc(Cc3cccnc3F)cn2)COc2ccc(C#CC(C)(C)CO)cc21 [I-46, (S)-4-((2-Fluoropyridin-3-yl)methyl)-N-(7-(4-hydroxy-3,3-dimethylbut-1-yn-1-yl)-5-methyl-4-oxo-2,3,4,5-tetrahydrobenzo[b][1,4]oxazepin-3-yl)-1H-pyrazole-1-carboxamide] yielded an IC50 (U937 cells) of 9.7 nM, an IC50 (L929 cells) of 2370 nM and an IC50 (RIPK1) of 37.5 nM.

In the case of CN1C(=O)[C@@H](NC(=O)n2cc(Cc3cccnc3F)cn2)COc2ccc(C#CC3(O)COC3)cc21 [I-47, (S)-4-((2-Fluoropyridin-3-yl)methyl)-N-(7-((3-hydroxyoxetan-3-yl)ethynyl)-5-methyl-4-oxo-2,3,4,5-tetrahydrobenzo[b][1,4]oxazepin-3-yl)-1H-pyrazole-1-carboxamide], the IC50 (U937 cells) is reported as 40.8 nM, the IC50 (L929 cells) is reported as 2900 nM and the IC50 (RIPK1) is reported as 17.5 nM.

CN1C(=O)[C@@H](NC(=O)n2cc(Cc3cccnc3F)cn2)COc2ccc(C#CC3(O)CCC3)cc21 [I-48, (S)-4-((2-Fluoropyridin-3-yl)methyl)-N-(7-((1-hydroxycyclobutyl)ethynyl)-5-methyl-4-oxo-2,3,4,5-tetrahydrobenzo[b][1,4]oxazepin-3-yl)-1H-pyrazole-1-carboxamide] was tested, and the IC50 (U937 cells) was 24.9 nM, the IC50 (L929 cells) was 1470 nM and the IC50 (RIPK1) was 646 nM.

CN1C(=O)[C@@H](NC(=O)n2cc(Cc3ccc(F)nc3F)cn2)COc2ccc(C#CC(C)(C)O)cc21 [I-50, (S)-4-((2,6-Difluoropyridin-3-yl)methyl)-N-(7-(3-hydroxy-3-methylbut-1-yn-1-yl)-5-methyl-4-oxo-2,3,4,5-tetrahydrobenzo[b][1,4]oxazepin-3-yl)-1H-pyrazole-1-carboxamide] showed an IC50 (U937 cells) of 62.3 nM, an IC50 (L929 cells) of 17600 nM and an IC50 (RIPK1) of 181 nM.

For CN1C(=O)[C@@H](NC(=O)c2cc(Cc3cccnc3F)ccn2)COc2ccc(C#CC3CCOCC3)cc21 [I-51, (S)-4-((2-fluoropyridin-3-yl)methyl)-N-(5-methyl-4-oxo-7-((tetrahydro-2H-pyran-4-yl)ethynyl)-2,3,4,5-tetrahydrobenzo[b][1,4]oxazepin-3-yl)picolinamide], the IC50 (U937 cells) was 0.4 nM, the IC50 (L929 cells) was 9.6 nM and the IC50 (RIPK1) was 18.3 nM.

With CN1C(=O)[C@@H](NC(=O)c2cc(Cc3cccnc3F)ccn2)COc2ccc(C#CC3COC3)cc21 [I-52, (S)-4-((2-fluoropyridin-3-yl)methyl)-N-(5-methyl-7-(oxetan-3-ylethynyl)-4-oxo-2,3,4,5-tetrahydrobenzo[b][1,4]oxazepin-3-yl)picolinamide] the IC50 (U937 cells) was 2.2 nM, the IC50 (L929 cells) was 657 nM and the IC50 (RIPK1) was 16.5 nM.

Work on CN1C(=O)[C@@H](NC(=O)c2cc(Cc3cccc(F)n3)ccn2)COc2ccc(C#CC3CCOCC3)cc21 [I-53, (S)-4-((6-fluoropyridin-2-yl)methyl)-N-(5-methyl-4-oxo-7-((tetrahydro-2H-pyran-4-yl)ethynyl)-2,3,4,5-tetrahydrobenzo[b][1,4]oxazepin-3-yl)picolinamide] yielded an IC50 (U937 cells) of 3 nM, an IC50 (L929 cells) of 114 nM and an IC50 (RIPK1) of 35.1 nM.

For CN1C(=O)[C@@H](NC(=O)c2cc(Oc3cccnc3F)ccn2)COc2ccc(C#CC(C)(C)O)cc21 [I-54, (S)-4-((2-fluoropyridin-3-yl)oxy)-N-(7-(3-hydroxy-3-methylbut-1-yn-1-yl)-5-methyl-4-oxo-2,3,4,5-tetrahydrobenzo[b][1,4]oxazepin-3-yl)picolinamide], the IC50 (U937 cells) was 7.1 nM, the IC50 (L929 cells) was 573 nM and the IC50 (RIPK1) was 16.8 nM.

CN1C(=O)[C@@H](NC(=O)c2cc(Oc3cccnc3F)ccn2)COc2ccc(C#CC3COC3)cc21 [I-55, (S)-4-((2-fluoropyridin-3-yl)oxy)-N-(5-methyl-7-(oxetan-3-ylethynyl)-4-oxo-2,3,4,5-tetrahydrobenzo[b][1,4]oxazepin-3-yl)picolinamide] gave an IC50 (U937 cells) of 1.2 nM, an IC50 (L929 cells) of 155 nM and an IC50 (RIPK1) of 14.3 nM.

CN1C(=O)[C@@H](NC(=O)c2cc(Oc3cccnc3F)ccn2)COc2ccc(C#CC3(O)COC3)cc21 [I-56, (S)-4-((2-fluoropyridin-3-yl)oxy)-N-(7-((3-hydroxyoxetan-3-yl)ethynyl)-5-methyl-4-oxo-2,3,4,5-tetrahydrobenzo[b][1,4]oxazepin-3-yl)picolinamide] showed an IC50 (U937 cells) of 2.9 nM, an IC50 (L929 cells) of 275 nM and an IC50 (RIPK1) of 10.5 nM.

For CN1C(=O)[C@@H](NC(=O)c2cc(Oc3cccnc3)ccn2)COc2ccc(C#CC3(O)COC3)cc21 [I-57, (S)—N-(7-((3-hydroxyoxetan-3-yl)ethynyl)-5-methyl-4-oxo-2,3,4,5-tetrahydrobenzo[b][1,4]oxazepin-3-yl)-4-(pyridin-3-yloxy)picolinamide], the IC50 (U937 cells) was 1.6 nM, the IC50 (L929 cells) was 437 nM and the IC50 (RIPK1) was 18.1 nM.

Compound CN1C(=O)[C@@H](NC(=O)c2cc(Oc3cccnc3)ccn2)COc2ccc(C#CC(C)(C)O)cc21 [I-58, (S)—N-(7-(3-hydroxy-3-methylbut-1-yn-1-yl)-5-methyl-4-oxo-2,3,4,5-tetrahydrobenzo[b][1,4]oxazepin-3-yl)-4-(pyridin-3-yloxy)picolinamide] has an IC50 (U937 cells) of 3.8 nM, an IC50 (L929 cells) of 1180 nM and an IC50 (RIPK1) of 20.2 nM.
